Series [1] concerns the target PD-1/PD-L1 (Homo sapiens, UniProt Q9NZQ7). As to the kind of experiment: TR-FRET PD-1/PD-L1 binding inhibition at the molecular level (free proteins). The conditions noted are these: Tag1-PD-L1 and Tag2-PD-1 proteins, twelve concentrations from 200 nM, 2 hours at room temperature, read-out: FRET assay (IC50). In a few lines:
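HTRF read-out at 665/620 nm after 2 h at room temperature. Detection used anti-Tag1 Eu cryptate plus anti-Tag2 XL665 antibodies. Tagged PD-L1 and PD-1 proteins were pre-mixed with compound across twelve […] 1:2 dilutions starting at 200 nM.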
(In TR-FRET formats the signal depends on donor and acceptor labels being close together.)

For series [2], the target named is hPD-L1 (Homo sapiens, UniProt Q9NZQ7). The experiment in a line: TR-FRET dimerization of hPD-L1 molecules. The series is classed as biochemical. The following applies: for pEC50: Fc tag-hPD-L1 and His tag-hPD-L1, twelve concentrations from 10 µM; for induction of dimerization of hPD-L1 molecules (in words): summary of Table 3. The procedure: In order to evaluate the dimerization of hPD-L1 molecules induced by the compounds of the present invention synthesized according to the above Preparation Examples, a TR-FRET (Time-Resolved Fluorescence Energy Transfer) experiment was performed as described below.
Sequence of hPD-L1 (Q9NZQ7 19-238 limits assumed): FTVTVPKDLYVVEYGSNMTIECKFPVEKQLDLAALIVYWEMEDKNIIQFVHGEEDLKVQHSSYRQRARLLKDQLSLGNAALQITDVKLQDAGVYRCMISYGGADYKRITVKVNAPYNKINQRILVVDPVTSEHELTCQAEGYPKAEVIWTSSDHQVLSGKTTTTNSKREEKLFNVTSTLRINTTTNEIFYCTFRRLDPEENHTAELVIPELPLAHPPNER
Sequence of hPD-L1 (Q9NZQ7 19-238 limits assumed): as above
Specifically, the compounds were prepared in a 96-well plate by serial dilution starting from 10 µM with 1/3 dilutions to obtain a total of twelve concentrations. Thereafter, 2 µL of each compound solution was added to a 384-well plate. Fc tag-hPD-L1 protein and His tag-hPD-L1 protein were each prepared at a 1x concentration, mixed at a ratio of 1:1 of above two proteins, and 8 µL of the mixed protein solution was added to each well of the 384-well plate containing the compounds, followed by incubation at room temperature for one day. On the following day, Anti-6His-Tb Cryptate Gold antibody and Anti-human IgG-XL665 antibody were each prepared at a 1x concentration, mixed at a ratio of 1:1, and 10 µL of the mixed antibody solution was added to each well of the 384-well plate containing the compounds and proteins, followed by incubation at room temperature for 2 hours. Upon completion of the reaction, fluorescence signals at wavelengths of 620 nm and 665 nm were measured using a microplate reader.

Series [3] concerns the target T1, PD-L1 expressed on the cell surface (MC38 hPD-L1) (Homo sapiens, UniProt Q9NZQ7).
T1 construct: expressed in transfected cells; host or cells: MC38 mouse colon cancer cell line expressing human PD-L1
As to the kind of experiment: Internalization of cell surface PD-L1, flow cytometry with fluorescent staining. The following applies: MC38 hPD-L1 cells, 1 µM, 4 hours; untreated 90% to 99%. The class given is cell-based. As to the method: In order to evaluate the internalization of cell surface PD-L1 induced by the compounds of the present invention synthesized according to the above Preparation Examples, a flow cytometry experiment using fluorescent staining was conducted as described below.
Specifically, a mouse colon cancer cell line expressing human PD-L1 (MC38 hPD-L1) was seeded into a 24-well plate at a density of 5 x 10^5 cells per well, followed by treatment with Compounds 206 to 227 at a concentration of 1 µM and incubation for 4 hours. After 4 hours, the compound-treated MC38 hPD-L1 cells were collected and stained with PE anti-hPD-L1 fluorecence at room temperature for 30 minutes. The rate of PD-L1 expression on the cell surface was then quantified using flow cytometry.
In general terms: Flow cytometry measures light scatter and fluorescence of single cells or particles in a stream.

In series [4] the test system is PD-1/PD-L1. As to the kind of experiment: PD-1/PD-L1 blockade bioassay at the cellular level (PD-L1 aAPC/CHO-K1 cells + PD-1 Effector T cells, luciferase). The class given is cell-based. The conditions noted are these: Homo sapiens, T-cell; PD-L1 aAPC/CHO-K1 cells with PD-1 Effector T cells, 6 hours, luminescence; read-out: PD-1/PD-L1 Inhibitory Activity EC50. The procedure:
In order to evaluate the effect of the compounds of the present invention, synthesized according to the above Preparation Examples, on blocking signal transduction between PD-1/PD-L1-expressing cells, a PD-1/PD-L1 blockade bioassay was conducted as described below.
Specifically, PD-L1 aAPC/CHO-K1 cells engineered to express human PD-L1 were seeded into a 96-well white plate and cultured for one day. On the following day, the compounds were prepared in a 96-well plate by serial dilution at concentrations starting from 10 µM and 5 µM, followed by 1/4 dilutions to obtain a total of ten concentrations. The culture medium in the plate seeded with the PD-L1 aAPC/CHO-K1 cell line was removed, and 40 µL of each prepared compound solution was added to a 96-well plate. Thereafter, 40 µL of PD-1 Effector T cell line engineered to express human PD-1 was additionally added, and then cultured for 6 hours. After 6 hours, 80 µL of Bio-Glo luciferase buffer was added to each well, followed by incubation at room temperature for 10 minutes, and luminescence was measured using a microplate reader.

In series [5] the test system is tumor. The experiment in a line: tumor growth inhibition in a group administered with the compound (FIG. 1). The series is classed as in vivo. The following applies: graph of FIG. 1; group administered with Compound 218; no numbers printed in this part.
Series [6] deals with MC38 hPD-L1. The experiment in a line: Tumor growth inhibition in MC38 hPD-L1 subcutaneous mouse model. The conditions noted are these: 50 mg/kg intraperitoneally once daily, female C57BL/6 mice. The class given is in vivo. As to the method: In order to evaluate whether the tumor inhibitory effects of the compounds synthesized according to the above Preparation Examples are also effective in vivo, animal experiments were conducted as described below.
A mouse colon cancer cell line expressing human PD-L1 (MC38 hPD-L1) was prepared at a density of 1.25 x 10^6 cells in 100 µL of DPBS and inoculated subcutaneously into the flank of 6-week-old female C57BL/6 mice. When the average tumor volume reached approximately 50 mm^3, the mice were divided into three experimental groups, with eight mice per group. Vehicle and Compound 218 (50 mg/kg) were administered intraperitoneally once daily, while Durvalumab (anti-PD-L1 mAb) was administered intraperitoneally twice per week. Tumor volume and body weight were measured every three days.

pEC50, pIC50: −log10 of the molar value.

The record followed here is patent EP4755888A1 (ILAb Co., Ltd., priority 2023, dated 2025).

One may read the pIC50 as −log10 of the IC50, conventionally taken in molar units.

T1 sequence (Q9NZQ7 19-290): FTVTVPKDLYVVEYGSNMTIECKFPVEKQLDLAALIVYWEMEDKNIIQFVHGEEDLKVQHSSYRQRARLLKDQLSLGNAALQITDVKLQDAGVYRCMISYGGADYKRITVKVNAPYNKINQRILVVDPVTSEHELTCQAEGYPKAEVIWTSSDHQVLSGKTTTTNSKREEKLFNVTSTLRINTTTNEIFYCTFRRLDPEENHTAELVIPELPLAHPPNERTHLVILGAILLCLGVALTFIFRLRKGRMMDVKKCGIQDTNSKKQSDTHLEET
Sequence of PD-1/PD-L1 (Homo sapiens, UniProt Q9NZQ7) (Q9NZQ7 19-238 limits assumed): as the sequence (Q9NZQ7 19-238 limits assumed) above

Consider `Cc1c(NC(=O)c2ccc(CN3CC[C@@H](O)C3)cn2)cccc1-c1cccc(NC(=O)c2cc3n(n2)CCC[C@@H]3N2CC[C@@H](O)C2)c1C` [Compound 216, (S)-4-((R)-3-hydroxypyrrolidin-1-yl)-N-(3'-(5-(((R)-3-hydroxypyrrolidin-1-yl)methyl)picolinamido)-2,2'-dimethyl-[1,1'-biphenyl]-3-yl)-4,5,6,7-tetrahydropyrazolo[1,5-a]pyridine-2-carboxamide], for which the pIC50 in series [1] is over 8.00. In addition, in series [2], the pEC50 was 7.60 and the “induction of dimerization of hPD-L1 molecules (in words)” value (from here on “induction”) is given as “effectively induced dimerization of hPD-L1 molecules at the nanomolar level”. Further, the “Cell surface PD-L1 expression level (%)” value in series [3] amounted to 3.0%. In addition, the pEC50 in series [4] was 7.50.
In the case of `O=C(O)CN[C@H]1CCCn2nc(C(=O)Nc3cccc(-c4cccc(Nc5nccc6cc(CN7CC[C@@H](O)C7)cnc56)c4Cl)c3Cl)cc21` [Compound 218, 2-(((S)-2-((2,2'-dichloro-3'-((3-(((R)-3-hydroxypyrrolidin-1-yl)methyl)-1,7-naphthyridin-8-yl)amino)-[1,1'-biphenyl]-3-yl)carbamoyl)-4,5,6,7-tetrahydropyrazolo[1,5-a]pyridin-4-yl)amino)acetic acid], in series [5], the “tumor growth inhibitory effect” value is given as “tumor growth inhibitory effect”. Also, in series [1], the pIC50 was over 8.00. In addition, in series [2], the pEC50 is 8.21 and the “induction” value is reported as “effectively induced dimerization of hPD-L1 molecules at the nanomolar level”. Also, the “Cell surface PD-L1 expression level (%)” value in series [3] was 0.3%. Moreover, the pEC50 in series [4] is 7.72. The “tumor growth inhibition compared to the vehicle-treated group” value in series [6] (Figure 1) was “significant inhibition of tumor growth”. The “change in body weight of mice” value in series [6] (Figure 2) is given as “no change in body weight”.
Regarding `O=C(O)CN[C@H]1CCCn2nc(C(=O)Nc3cccc(-c4cccc(NC(=O)c5ccc(CNCCO)cn5)c4Cl)c3Cl)cc21` [Compound 220, (S)-2-((2-((2,2'-dichloro-3'-(5-(((2-hydroxyethyl)amino)methyl)picolinamido)-[1,1'-biphenyl]-3-yl)carbamoyl)-4,5,6,7-tetrahydropyrazolo[1,5-a]pyridin-4-yl)amino)acetic acid], the pIC50 in series [1] was over 8.00. Besides, the “Cell surface PD-L1 expression level (%)” value in series [3] is listed as 0.6%. Besides, the pEC50 in series [4] is 7.87.
For `O=C(O)CN[C@H]1CCCn2nc(C(=O)Nc3cccc(-c4cccc(NC(=O)c5ccc(CN6CC[C@@H](O)C6)cn5)c4Cl)c3Cl)cc21` [Compound 222, 2-(((S)-2-((2,2'-dichloro-3'-(5-(((R)-3-hydroxypyrrolidin-1-yl)methyl)picolinamido)-[1,1'-biphenyl]-3-yl)carbamoyl)-4,5,6,7-tetrahydropyrazolo[1,5-a]pyridin-4-yl)amino)acetic acid], in series [1], the pIC50 was over 8.00. In addition, the “Cell surface PD-L1 expression level (%)” value in series [3] was determined as 0.3%. The pEC50 in series [4] is 7.46.
As for `O=C(Nc1cccc(-c2cccc(Nc3nccc4cc(CN5CC[C@H](O)C5)cnc34)c2Cl)c1Cl)c1cc2n(n1)CCC[C@H]2N1CCC(C(=O)O)CC1` [Compound 227, 1-((R)-2-((2,2'-dichloro-3'-((3-(((S)-3-hydroxypyrrolidin-1-yl)methyl)-1,7-naphthyridin-8-yl)amino)-[1,1'-biphenyl]-3-yl)carbamoyl)-4,5,6,7-tetrahydropyrazolo[1,5-a]pyridin-4-yl)piperidine-4-carboxylic acid], the pIC50 in series [1] is 7.00 to 8.00. In addition, the pEC50 in series [2] is 7.58; in series [4], 7.69. For the same compound, the “induction” value in series [2] is reported as “effectively induced dimerization of hPD-L1 molecules at the nanomolar level”. Further, in series [3], the “Cell surface PD-L1 expression level (%)” value is reported as 1.6%.
